{"source": "patent US9724336B2", "about": "“Pharmaceutical composition for preventing or treating hyperlipidemia” (priority 2011, dated 2017)", "key": {"[1]": {"test_system": "hypertriglyceridemia and hypercholesterolemia-induced animals", "assay": "HDL cholesterol concentrations in blood of hypertriglyceridemia and hypercholesterolemia-induced animals (Example 2)", "type": "in vivo, New Zealand White rabbits", "settings": "4 weeks oral once per day, Compound of Formula 1 20 mg/kg/day and/or olmesartan medoxomil 3 mg/kg/day; for average HDL cholesterol concentrations, 4 weeks: n=4-7; for Percent increase of HDL cholesterol level (%): in comparison with the G2 group", "excerpt": "(§1) Male New Zealand White rabbits were used as a test animal. All animals, except for the G1 group animals (negative control group), were fed with an irradiation-sterilized hypertriglyceridemia and hypercholesterolemia diet, i.e., DYET #621082 (Purina #5321 chow with 0.5% cholesterol, 14% coconut oil & 2% Maltose Dextrin, Dyets, Inc., Bethlehem, Pa. 18017), which was purchased from Saeronbio Inc. In order to induce hypertriglyceridemia and hypercholesterolemia, the animals were supplied with the diet for more than 4 weeks. After collecting the blood samples from the animals, serum biochemical analyses were performed thereon. Animals showing significant changes in total cholesterol levels and triglyceride levels were selected, in comparison with the non-treated control group. The selected animals were divided into 4 groups on the basis of the total cholesterol levels and triglyceride levels, thereby all the groups having substantially equal average values in the total cholesterol levels and triglyceride levels. The test materials were dissolved in saline containing 0.5% carboxymethylcellulose sodium and 1% Tween 80 and then administered directly into the stomach using an oral syringe adapted with a latex catheter, once per day for 4 weeks. The test groups are as in the following Table 3.\nThe blood samples were collected through the jugular vein, from the animals at the day initiating the administration of the test material(s) (i.e., at the time of group-dividing, 0 week), and from the animals (which were fasted for 12 to 16 hours before collecting the blood) at 4 weeks after initiating the administration of the test material(s) (n=4-7)."}, "[2]": {"test_system": "hypertriglyceridemia and hypercholesterolemia-induced animals", "assay": "Triglyceride concentrations in hypertriglyceridemia and hypercholesterolemia-induced animals (Example 2)", "type": "in vivo, New Zealand White rabbits", "settings": "4 weeks oral once per day, Compound of Formula 1 20 mg/kg/day and/or olmesartan medoxomil 3 mg/kg/day", "excerpt": "as §1, with “3. […]” for “3.”"}}}
{"smiles": "COc1cc(F)c(C(C)C)cc1-c1ccc(C(F)(F)F)cc1CN1C(=O)O[C@H](c2cc(C(F)(F)F)cc(C(F)(F)F)c2)[C@@H]1C", "note": "[Compound of Formula 1, (4S,5R)-5-[3,5-bis(trifluoromethyl)phenyl]-3-({2-[4-fluoro-2-methoxy-5-(propan-2-yl)phenyl]-5-(trifluoromethyl)phenyl}methyl)-4-methyl-1,3-oxazolidin-2-one]", "values": [{"measurement": "average HDL cholesterol concentrations, 4 weeks", "setting": "[1]", "result": 168.5, "unit": "mg/dL"}, {"measurement": "Percent increase of HDL cholesterol level (%)", "setting": "[1]", "result": 37.9, "unit": "%"}]}
{"smiles": "CCCc1nc(C(C)(C)O)c(C(=O)OCc2oc(=O)oc2C)n1Cc1ccc(-c2ccccc2-c2nnn[nH]2)cc1", "note": "[Olmesartan medoxomil]", "values": [{"measurement": "average triglyceride concentrations, 4 weeks", "setting": "[2]; 0.5% cholesterol, 14% coconut oil diet, n=4-7", "result": 217.4, "unit": "mg/dL"}, {"measurement": "Percent inhibition of triglyceride in the blood (%)", "setting": "[2]; in comparison with the G2 group", "result": 33.4, "unit": "%"}, {"measurement": "average HDL cholesterol concentrations, 4 weeks", "setting": "[1]", "result": 125.3, "unit": "mg/dL"}, {"measurement": "Percent increase of HDL cholesterol level (%)", "setting": "[1]", "result": 2.6, "unit": "%"}]}
